From ChEMBL document CHEMBL2434948, “Discovery, synthesis, and characterization of an orally bioavailable, brain penetrant inhibitor of mixed lineage kinase 3” (J Med Chem, 2013)
Activity calls are given as the source filed them. The calls are words filed in the database; no cut-off is given here.

Legend:
[1] = target: Mitogen-activated protein kinase kinase kinase 10 (Homo sapiens, UniProt Q02779)
Description: Inhibition of MLK2 (unknown origin)

[2] = target: Tyrosine-protein kinase SYK (Homo sapiens, UniProt P43405)
Description: Inhibition of wild type human SYK by high throughput ATP-[33P] radiolabeled assay

[3] = target: High affinity nerve growth factor receptor (Homo sapiens, UniProt P04629)
Description: Inhibition of wild type human TRKA by high throughput ATP-[33P] radiolabeled assay

[4] = target: Ribosomal protein S6 kinase alpha-6 (Homo sapiens) (UniProt Q9UK32); assay: Inhibition of human wild type RSK4 at 1 uM by qPCR analysis
[5] = target: Serine/threonine-protein kinase Sgk1 (Homo sapiens) (UniProt O00141); assay: Inhibition of human wild type SGK1 at 1 uM by qPCR analysis relative to control
[6] = target: Mitogen-activated protein kinase 13 (Homo sapiens) (UniProt O15264); assay: Inhibition of human wild type p38d at 1 uM by qPCR analysis
[7] = target: Platelet-derived growth factor receptor beta (Homo sapiens) (UniProt P09619); assay: Inhibition of human wild type PDGFRB at 1 uM by qPCR analysis relative to control
[8] = target: T1, Tyrosine-protein kinase ABL1 (Homo sapiens, UniProt P00519)
Description: Inhibition of wild type human ABL1 by high throughput ATP-[33P] radiolabeled assay

[9] = target: Mitogen-activated protein kinase 8 (Homo sapiens, UniProt P45983); assay: Inhibition of human wild type JNK1 at 1 uM by qPCR analysis relative to control
[10] = target: RAC-beta serine/threonine-protein kinase (Homo sapiens) (UniProt P31751); assay: Inhibition of human wild type AKT2 at 1 uM by qPCR analysis
[11] = target: Insulin-like growth factor 1 receptor (Homo sapiens, UniProt P08069)
Description: Inhibition of wild type human IGF1R by high throughput ATP-[33P] radiolabeled assay

[12] = target: Dual specificity protein kinase CLK1 (Homo sapiens) (UniProt P49759); assay: Inhibition of human wild type CLK1 at 1 uM by qPCR analysis relative to control
[13] = target: ALK tyrosine kinase receptor (Homo sapiens) (UniProt Q9UM73); assay: Inhibition of human wild type ALK at 1 uM by qPCR analysis relative to control
[14] = target: Mitogen-activated protein kinase kinase kinase 11 (Homo sapiens, UniProt Q16584)
Description: Inhibition of MLK3 (unknown origin) after 20 mins by scintillation counting analysis in presence of [33P]-ATP

[15] = target: Serine/threonine-protein kinase MARK2 (Homo sapiens) (UniProt Q7KZI7); assay: Inhibition of human wild type MARK2 at 1 uM by qPCR analysis relative to control
[16] = target: T2, Receptor-type tyrosine-protein kinase FLT3 (Homo sapiens, UniProt P36888); assay: cell-based
T2 sequence (P36888 whole entry): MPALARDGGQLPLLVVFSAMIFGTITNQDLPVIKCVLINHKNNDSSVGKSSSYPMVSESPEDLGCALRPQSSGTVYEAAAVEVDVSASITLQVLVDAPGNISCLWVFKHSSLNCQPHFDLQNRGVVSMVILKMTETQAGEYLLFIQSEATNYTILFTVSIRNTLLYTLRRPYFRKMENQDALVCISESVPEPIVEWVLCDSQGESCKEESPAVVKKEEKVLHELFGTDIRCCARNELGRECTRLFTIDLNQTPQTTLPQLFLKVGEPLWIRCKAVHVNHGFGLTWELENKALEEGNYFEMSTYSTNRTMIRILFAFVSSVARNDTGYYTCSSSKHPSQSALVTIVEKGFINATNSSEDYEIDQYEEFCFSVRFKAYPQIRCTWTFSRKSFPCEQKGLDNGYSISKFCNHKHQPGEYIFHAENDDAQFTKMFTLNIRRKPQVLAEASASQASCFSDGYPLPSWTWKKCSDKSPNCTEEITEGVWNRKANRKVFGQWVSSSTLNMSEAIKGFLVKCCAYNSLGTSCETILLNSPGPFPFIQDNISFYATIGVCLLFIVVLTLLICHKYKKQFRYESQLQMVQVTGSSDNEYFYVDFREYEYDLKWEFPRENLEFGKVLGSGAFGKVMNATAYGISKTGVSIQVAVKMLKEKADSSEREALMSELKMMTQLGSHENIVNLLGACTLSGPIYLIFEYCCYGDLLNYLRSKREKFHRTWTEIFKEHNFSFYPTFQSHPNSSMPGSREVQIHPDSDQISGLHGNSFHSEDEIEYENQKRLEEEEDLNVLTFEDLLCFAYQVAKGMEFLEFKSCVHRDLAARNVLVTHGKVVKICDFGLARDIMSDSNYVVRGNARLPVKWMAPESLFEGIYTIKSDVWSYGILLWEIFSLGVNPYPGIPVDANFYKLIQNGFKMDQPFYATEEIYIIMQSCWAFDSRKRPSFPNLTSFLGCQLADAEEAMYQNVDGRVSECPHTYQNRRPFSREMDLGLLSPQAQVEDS
Description: Inhibition of FLT3-L-stimulated wild type full length human FLT3 autophosphorylation expressed in MEF preincubated for 90 mins followed by FLT3-L stimulation measured after 5 mins by ELISA

[17] = target: TRAF2 and NCK-interacting protein kinase (Homo sapiens) (UniProt Q9UKE5); assay: Binding affinity to human wild type TNIK at 1 uM by qPCR analysis
[18] = target: T1, Tyrosine-protein kinase ABL1; assay: Inhibition of human wild type ABL1 at 1 uM by qPCR analysis relative to control
[19] = target: Tyrosine-protein kinase receptor UFO (Homo sapiens) (UniProt P30530); assay: Inhibition of human wild type AXL at 1 uM by qPCR analysis relative to control
[20] = target: Vascular endothelial growth factor receptor 1 (Homo sapiens, UniProt P17948)
Description: Inhibition of wild type human FLT1 by high throughput ATP-[33P] radiolabeled assay

[21] = target: Rho-associated protein kinase 1 (Homo sapiens, UniProt Q13464)
Description: Inhibition of wild type human ROCK1 by high throughput ATP-[33P] radiolabeled assay

[22] = target: Rho-associated protein kinase 2 (Homo sapiens, UniProt O75116)
Description: Inhibition of wild type human ROCK2 by high throughput ATP-[33P] radiolabeled assay

[23] = target: Leucine-rich repeat serine/threonine-protein kinase 2 (Homo sapiens, UniProt Q5S007); assay: Inhibition of human wild type LRRK2 at 1 uM by qPCR analysis relative to control
[24] = target: Tyrosine-protein kinase ZAP-70 (Homo sapiens, UniProt P43403)
Description: Inhibition of wild type human ZAP70 by high throughput ATP-[33P] radiolabeled assay

[25] = target: Cyclin-dependent kinase 4 (Homo sapiens) (UniProt P11802); assay: Inhibition of human wild type CDK4 at 1 uM by qPCR analysis relative to control
[26] = target: Receptor-type tyrosine-protein kinase FLT3 (Homo sapiens) (UniProt P36888); assay: Inhibition of human wild type FLT3 at 1 uM by qPCR analysis relative to control
[27] = target: Dual specificity protein kinase CLK2 (Homo sapiens) (UniProt P49760); assay: Inhibition of human wild type CLK2 at 1 uM by qPCR analysis relative to control
[28] = target: Ribosomal protein S6 kinase alpha-1 (Homo sapiens) (UniProt Q15418); assay: Inhibition of human wild type RSK1 at 1 uM by qPCR analysis
Cytochrome P450 2C9 = Cytochrome P450 2C9 (Homo sapiens, UniProt P11712)
Description: Inhibition of CYP2C9 in human liver microsomes assessed as inhibition of midazolam metabolism by HPLC/MS analysis

T1 sequence (P00519 whole entry): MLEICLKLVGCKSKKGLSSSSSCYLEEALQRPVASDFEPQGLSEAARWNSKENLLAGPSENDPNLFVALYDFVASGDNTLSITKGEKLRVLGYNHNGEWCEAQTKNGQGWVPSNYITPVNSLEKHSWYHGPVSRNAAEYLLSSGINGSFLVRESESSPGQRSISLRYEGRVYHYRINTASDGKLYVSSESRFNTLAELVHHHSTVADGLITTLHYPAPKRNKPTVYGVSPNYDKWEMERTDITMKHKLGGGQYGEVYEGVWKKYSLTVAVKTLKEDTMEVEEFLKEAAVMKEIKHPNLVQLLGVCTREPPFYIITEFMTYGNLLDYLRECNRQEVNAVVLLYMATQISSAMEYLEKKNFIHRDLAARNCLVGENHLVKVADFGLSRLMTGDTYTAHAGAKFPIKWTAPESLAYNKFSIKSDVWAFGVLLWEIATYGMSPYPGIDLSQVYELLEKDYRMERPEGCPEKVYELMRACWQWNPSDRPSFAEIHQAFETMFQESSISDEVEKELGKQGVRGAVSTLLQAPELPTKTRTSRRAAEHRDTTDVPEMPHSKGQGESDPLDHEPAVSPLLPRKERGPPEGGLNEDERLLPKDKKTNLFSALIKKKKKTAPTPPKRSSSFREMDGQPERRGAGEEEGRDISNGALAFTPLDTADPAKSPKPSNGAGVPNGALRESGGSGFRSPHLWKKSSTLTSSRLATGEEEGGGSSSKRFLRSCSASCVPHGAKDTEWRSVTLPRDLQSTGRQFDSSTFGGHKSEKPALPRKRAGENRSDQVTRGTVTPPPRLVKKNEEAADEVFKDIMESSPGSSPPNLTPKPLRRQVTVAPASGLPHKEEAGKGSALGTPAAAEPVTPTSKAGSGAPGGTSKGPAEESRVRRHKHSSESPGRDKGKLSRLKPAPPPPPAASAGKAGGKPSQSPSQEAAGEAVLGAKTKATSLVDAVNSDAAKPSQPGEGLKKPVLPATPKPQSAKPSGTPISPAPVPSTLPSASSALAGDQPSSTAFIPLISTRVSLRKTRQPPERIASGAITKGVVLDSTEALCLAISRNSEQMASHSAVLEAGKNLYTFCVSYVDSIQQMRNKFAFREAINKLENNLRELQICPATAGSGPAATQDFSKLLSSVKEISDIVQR
Sequence of Rho-associated protein kinase 1 (Q13464 whole entry): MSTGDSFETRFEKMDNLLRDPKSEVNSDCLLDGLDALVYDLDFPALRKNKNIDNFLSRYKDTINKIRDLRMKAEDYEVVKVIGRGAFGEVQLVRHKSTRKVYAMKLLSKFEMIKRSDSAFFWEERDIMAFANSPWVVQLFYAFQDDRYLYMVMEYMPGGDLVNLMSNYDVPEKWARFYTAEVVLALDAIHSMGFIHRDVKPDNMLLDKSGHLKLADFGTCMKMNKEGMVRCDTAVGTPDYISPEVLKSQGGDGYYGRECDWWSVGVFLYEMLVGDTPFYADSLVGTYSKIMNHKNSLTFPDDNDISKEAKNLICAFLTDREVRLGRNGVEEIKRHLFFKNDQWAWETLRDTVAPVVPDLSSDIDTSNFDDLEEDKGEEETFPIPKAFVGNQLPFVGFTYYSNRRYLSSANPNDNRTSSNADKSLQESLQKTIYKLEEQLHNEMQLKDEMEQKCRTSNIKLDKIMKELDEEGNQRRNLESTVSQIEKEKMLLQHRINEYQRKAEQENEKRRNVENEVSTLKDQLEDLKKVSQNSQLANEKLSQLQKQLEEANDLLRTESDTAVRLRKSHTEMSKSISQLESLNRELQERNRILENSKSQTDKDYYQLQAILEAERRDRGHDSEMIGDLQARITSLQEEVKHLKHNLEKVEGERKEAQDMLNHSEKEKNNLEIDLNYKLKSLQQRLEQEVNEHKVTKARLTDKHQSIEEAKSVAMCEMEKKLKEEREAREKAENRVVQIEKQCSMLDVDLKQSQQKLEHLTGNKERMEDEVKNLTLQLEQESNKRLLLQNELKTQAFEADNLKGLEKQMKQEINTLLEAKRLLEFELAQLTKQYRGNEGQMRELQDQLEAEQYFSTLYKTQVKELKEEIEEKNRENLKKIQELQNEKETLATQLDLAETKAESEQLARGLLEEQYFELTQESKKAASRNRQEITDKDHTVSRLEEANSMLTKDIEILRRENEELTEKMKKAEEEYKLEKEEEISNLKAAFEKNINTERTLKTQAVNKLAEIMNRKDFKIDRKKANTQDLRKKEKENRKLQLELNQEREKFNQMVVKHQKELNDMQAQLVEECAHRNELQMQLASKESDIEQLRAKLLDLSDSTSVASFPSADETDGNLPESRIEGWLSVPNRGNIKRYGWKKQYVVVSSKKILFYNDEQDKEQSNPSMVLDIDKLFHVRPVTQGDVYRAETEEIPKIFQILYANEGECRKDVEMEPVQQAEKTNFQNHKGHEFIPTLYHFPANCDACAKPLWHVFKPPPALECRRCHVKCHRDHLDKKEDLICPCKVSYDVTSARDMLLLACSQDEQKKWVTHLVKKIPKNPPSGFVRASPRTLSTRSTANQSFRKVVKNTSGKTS
Sequence of Mitogen-activated protein kinase kinase kinase 10 (Q02779 whole entry): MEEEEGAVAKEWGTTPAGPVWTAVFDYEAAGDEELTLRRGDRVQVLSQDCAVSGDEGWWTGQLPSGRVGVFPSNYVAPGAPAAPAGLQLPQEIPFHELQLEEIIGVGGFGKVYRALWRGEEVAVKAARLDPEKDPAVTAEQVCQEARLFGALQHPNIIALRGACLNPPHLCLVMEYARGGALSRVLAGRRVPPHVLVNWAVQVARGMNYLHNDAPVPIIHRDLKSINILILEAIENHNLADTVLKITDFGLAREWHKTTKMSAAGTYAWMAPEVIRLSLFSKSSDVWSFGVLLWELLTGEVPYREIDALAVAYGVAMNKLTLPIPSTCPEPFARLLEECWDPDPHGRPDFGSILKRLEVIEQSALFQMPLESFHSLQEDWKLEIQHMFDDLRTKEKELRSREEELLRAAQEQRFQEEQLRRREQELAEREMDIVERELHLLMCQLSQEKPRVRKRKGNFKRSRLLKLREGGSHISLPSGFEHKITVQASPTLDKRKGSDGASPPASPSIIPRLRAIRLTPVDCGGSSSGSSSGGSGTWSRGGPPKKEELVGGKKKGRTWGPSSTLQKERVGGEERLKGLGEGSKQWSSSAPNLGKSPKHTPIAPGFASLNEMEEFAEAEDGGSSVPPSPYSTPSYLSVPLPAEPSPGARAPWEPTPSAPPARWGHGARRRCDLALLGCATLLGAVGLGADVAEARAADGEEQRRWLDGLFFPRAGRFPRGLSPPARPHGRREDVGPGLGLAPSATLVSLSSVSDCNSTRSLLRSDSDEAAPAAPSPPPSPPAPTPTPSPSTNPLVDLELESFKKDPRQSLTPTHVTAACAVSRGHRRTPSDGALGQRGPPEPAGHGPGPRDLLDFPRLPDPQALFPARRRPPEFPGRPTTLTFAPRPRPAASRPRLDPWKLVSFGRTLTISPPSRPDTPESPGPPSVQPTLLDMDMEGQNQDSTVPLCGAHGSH
Sequence of Dual specificity protein kinase CLK2 (Homo sapiens) (P49760 whole entry, looked up): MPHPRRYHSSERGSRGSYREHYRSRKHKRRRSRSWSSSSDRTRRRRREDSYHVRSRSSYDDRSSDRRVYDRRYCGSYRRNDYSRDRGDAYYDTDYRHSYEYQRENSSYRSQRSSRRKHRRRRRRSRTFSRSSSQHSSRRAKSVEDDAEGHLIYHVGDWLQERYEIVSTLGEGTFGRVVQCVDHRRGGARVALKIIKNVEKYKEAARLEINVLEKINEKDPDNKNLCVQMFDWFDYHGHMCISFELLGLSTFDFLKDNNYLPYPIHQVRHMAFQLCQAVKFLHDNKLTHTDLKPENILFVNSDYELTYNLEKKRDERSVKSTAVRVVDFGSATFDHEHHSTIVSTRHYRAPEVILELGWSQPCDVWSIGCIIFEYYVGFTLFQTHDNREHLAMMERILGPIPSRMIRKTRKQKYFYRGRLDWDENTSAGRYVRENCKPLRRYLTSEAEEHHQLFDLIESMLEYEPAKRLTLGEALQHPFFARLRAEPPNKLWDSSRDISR
Sequence of Tyrosine-protein kinase ZAP-70 (P43403 whole entry): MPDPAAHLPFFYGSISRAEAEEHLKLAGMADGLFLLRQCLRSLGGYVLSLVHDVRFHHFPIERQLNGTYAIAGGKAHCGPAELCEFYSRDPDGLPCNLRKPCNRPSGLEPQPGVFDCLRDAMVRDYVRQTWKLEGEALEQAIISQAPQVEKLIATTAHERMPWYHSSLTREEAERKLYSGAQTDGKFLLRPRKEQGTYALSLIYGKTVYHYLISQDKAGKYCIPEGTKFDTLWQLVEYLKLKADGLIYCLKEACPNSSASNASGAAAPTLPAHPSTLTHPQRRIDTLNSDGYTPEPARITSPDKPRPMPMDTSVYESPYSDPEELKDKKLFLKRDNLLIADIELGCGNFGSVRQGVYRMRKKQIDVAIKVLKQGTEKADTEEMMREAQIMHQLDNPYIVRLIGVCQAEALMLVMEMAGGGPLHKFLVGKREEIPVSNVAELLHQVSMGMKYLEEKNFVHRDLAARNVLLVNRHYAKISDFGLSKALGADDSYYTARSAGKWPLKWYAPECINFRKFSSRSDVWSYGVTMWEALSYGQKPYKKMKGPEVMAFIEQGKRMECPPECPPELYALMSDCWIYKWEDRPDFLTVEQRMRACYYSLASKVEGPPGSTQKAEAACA
Sequence of Mitogen-activated protein kinase 13 (Homo sapiens) (O15264 whole entry): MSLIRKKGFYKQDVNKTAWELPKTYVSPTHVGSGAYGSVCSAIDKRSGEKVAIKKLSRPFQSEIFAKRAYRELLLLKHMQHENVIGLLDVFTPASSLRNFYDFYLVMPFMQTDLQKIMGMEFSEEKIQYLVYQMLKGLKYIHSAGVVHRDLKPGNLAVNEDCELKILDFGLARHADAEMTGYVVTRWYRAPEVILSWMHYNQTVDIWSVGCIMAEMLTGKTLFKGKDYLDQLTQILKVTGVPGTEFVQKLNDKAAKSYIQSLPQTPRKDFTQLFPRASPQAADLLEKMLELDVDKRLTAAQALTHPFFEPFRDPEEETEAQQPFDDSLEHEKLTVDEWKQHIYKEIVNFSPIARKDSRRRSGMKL

CN1CCN(Cc2ccc(-c3cnc4[nH]cc(-c5ccc6[nH]ccc6c5)c4c3)cc2)CC1
IC50 [1]: 42 nM | IC50 [2]: 731 nM | IC50 [3]: 85 nM | inhibition [4]: inactive | inhibition [5]: 70% | inhibition [6]: inactive | inhibition [7]: > 90% | IC50 [8]: 6.8 nM | inhibition [9]: 99% | inhibition [10]: inactive | IC50 [11]: 307 nM | inhibition [12]: > 90% | inhibition [13]: > 90% | IC50 [14]: 14 nM | inhibition [15]: 49% | IC50 [16]: 560 nM | inhibition [17]: Active | inhibition [18]: > 90% | inhibition [19]: > 90% | IC50 [20]: 39 nM | IC50 [21]: 1030 nM | IC50 [22]: 111 nM | inhibition [23]: 92% | IC50 [24]: 5050 nM | inhibition [25]: > 90% | inhibition [26]: > 90% | inhibition [27]: > 90% | inhibition [28]: inactive | IC50 (Cytochrome P450 2C9): > 30000 nM
